Reference: patent publication US7902234B2, “Thiadiazoline derivative” (Kyowa Hakko Kirin Co., Ltd., priority 2001, dated 2011)

Tested on: HCT 116 cells
Experiment: Antiproliferative activity in HCT 116 human colon cancer cells (XTT)
Format: cell-based
Conditions: 72 hours incubation with compound, XTT absorbance 490 nm minus 655 nm, read-out: GI50 (concentration of 50% proliferation inhibition)
Method: HCT 116 cells (ATCC No.: CCL-247) were placed on a 96-well microliter plate (Nunc, 167008) at a density of 1×10^3 cells/well. The plate was incubated in a 5% CO2 incubator at 37° C. for 24 hours, and then to the plate was added test compounds diluted stepwise to […] in total, and the plate was further incubated in a 5% CO2 incubator at 37° C. for 72 hours. To the culture medium, the XTT (sodium 3′-[1-(phenylaminocarbonyl)-3,4-tetrazolium)-bis(4-methoxy-6-nitro)benzenesulfonic acid hydrate) labeling mixture (Roche Diagnostics, 1465015) was dispensed in […] portions, then the plate was incubated in a 5% CO2 incubator at 37° C. for 1 hour, and the absorbance was measured at 490 nm and 655 nm with a microplate spectrophotometer (Bio-Rad, Model 550). The inhibitory activity against cell proliferation was shown as a concentration of 50% proliferation inhibition, GI50.
GI50 calculation method: The value (difference in absorbance) was calculated by subtracting the absorbance at 655 nm from the absorbance at 490 nm of each well. […]

| GI50 | Compound |
| --- | --- |
| 480 nM | CC(=O)N(C)C1=NN(C(C)=O)C(C)(c2ccccc2)S1 (centres unmarked) [Compound 7] |
| 1000 nM | CC(=O)NC1=NN(C(C)=O)C(C)(c2ccccc2)S1 (centres unmarked) [Compound 1] |
